Measurements from US11548880B2, “Modulators of hemoglobin” (Global Blood Therapeutics, Inc., priority 2018, dated 2023).

What follows are molecules tested against T1, Hb (Homo sapiens, UniProt P68871+P69905) (assay: Whole blood assay: oxygen equilibrium curves (Hemox Analyzer), change in p50). Conditions: whole blood incubated 1 h at 37° C., equimolar ratio of hemoglobin to compound.
T1 construct: from tissue; host or cells: whole blood
T1 sequence (P69905 2-142 limits assumed): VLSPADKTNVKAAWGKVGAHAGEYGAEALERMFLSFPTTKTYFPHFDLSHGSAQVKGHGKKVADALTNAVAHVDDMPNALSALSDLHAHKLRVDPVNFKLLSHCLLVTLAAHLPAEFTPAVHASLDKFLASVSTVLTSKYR
T1 sequence (P68871 2-147 limits assumed): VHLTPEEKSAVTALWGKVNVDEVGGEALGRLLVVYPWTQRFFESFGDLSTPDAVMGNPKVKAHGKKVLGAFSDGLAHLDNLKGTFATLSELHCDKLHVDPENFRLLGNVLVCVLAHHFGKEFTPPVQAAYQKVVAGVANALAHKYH
Type: cell-based
Protocol: Whole blood assay: Oxygen equilibrium curves (OECs) were collected using a TCS Hemox Analyzer (TCS Scientific Company, New Hope, Pa., USA) to measure changes in the binding affinity of O2 to Hb. Whole blood was incubated for 1 h at 37° C. with the indicated compounds in an equimolar ratio of hemoglobin to compound and diluted into TES (2-[[1,3-dihydroxy-2-(hydroxymethyl)propan-2-yl]amino]ethanesulfonic acid)/saline buffer prior to measurements. For example, for whole blood at 20% hematocrit [Hct], which corresponds to 1 mM Hb, a compound concentration of 1 mM was used (for example, for compounds 1-5), and the incubated sample diluted 50- to 100-fold. The concentration for compounds 6-44 (Diastereomers 1 and 2) varied but remained in equimolar ratio to hemoglobin. The diluted samples were then oxygenated with compressed air within the Hemox Analyzer and the OECs were collected during deoxygenation as previously described (Guarnone et al., Haematologica, 1995, 80, 426-430). p 50 (partial pressure of O2 at which Hb is 50% saturated with O2) values were obtained using a non-linear regression analysis. Percentage change in p50 [Δp50(%)] was calculated as follows: Δp50(%)=[(p50 of control)−p50 with compound)/p50 control]×100.
With O=Cc1c(O)cccc1OC[C@@H]1CCCN1C(=O)c1ccccc1CO [Compound 26, 2-hydroxy-6-{[(2S)-1-[2-(hydroxymethyl)benzoyl]pyrrolidin-2-yl]methoxy}benzaldehyde] the “Delta-p50 (%)” value was 51.72%. In the case of CC(O)Cc1ncccc1C(=O)N1CCSC[C@H]1COc1cccc(O)c1C=O (single isomer, unassigned) [44 (Diastereomer 1)], the “Delta-p50 (%)” value is reported as 66.57%. With O=Cc1c(O)cccc1OC[C@@H]1CCCCN1C(=O)c1nccnc1CCO [Compound 7, (S)-2-hydroxy-6-((1-(3-(2-hydroxyethyl)pyrazine-2-carbonyl)piperidin-2-yl)methoxy)benzaldehyde] the “Delta-p50 (%)” value was 62.7%. In the case of O=Cc1c(O)cccc1OC[C@@H]1CCCCN1C(=O)c1ccccc1CCO [Compound 6, (S)-2-hydroxy-6-((1-(2-(2-hydroxyethyl)benzoyl)-piperidin-2-yl)methoxy)-benzaldehyde], the “Delta-p50 (%)” value is reported as 74.5%. In the case of N#CCCc1ncccc1C(=O)N1CCC[C@H]1COc1cccc(O)c1C=O [Compound 30, (S)-3-(3-(2-((2-formyl-3-hydroxyphenoxy)methyl)-pyrrolidine-1-carbonyl)-pyridin-2-yl)propanenitrile], the “Delta-p50 (%)” value is reported as 74.19%. In the case of COCCc1ccccc1C(=O)N1CCOC[C@H]1COc1cccc(O)c1C=O [Compound 29, 2-hydroxy-6-{[(3S)-4-[2-(2-methoxyethyl)benzoyl]morpholin-3-yl]methoxy}benzaldehyde], the “Delta-p50 (%)” value is reported as 78.79%. With O=Cc1c(O)cccc1OC[C@H]1CCCCN1C(=O)c1cccnc1CCO [Compound 38, 2-hydroxy-6-{[(2R)-1-[2-(2-hydroxyethyl)pyridine-3-carbonyl]piperidin-2-yl]methoxy}benzaldehyde] the “Delta-p50 (%)” value was 60.85%. For O=Cc1c(O)cccc1OC[C@@H]1CCCCN1C(=O)c1cccnc1CCN1CCCC1 [Compound 4, (S)-2-hydroxy-6-((1-(2-(2-(pyrrolidin-1-yl)ethyl)nicotinoyl)piperidin-2-yl)methoxy)benzaldehyde], the “Delta-p50 (%)” value was 75.5%. For CC(O)Cc1ncccc1C(=O)N1CCSC[C@H]1COc1cccc(O)c1C=O (single isomer, unassigned) [44 (Diastereomer 2)], the “Delta-p50 (%)” value was 54.34%. O=Cc1c(O)cccc1OC[C@@H]1CCCCN1C(=O)c1ccccc1CCN1CCCC1 [Compound 17, (S)-2-hydroxy-6-((1-(2-(2-(pyrrolidin-1-yl)ethyl)benzoyl)piperidin-2-yl)methoxy)benzaldehyde] was tested, and the “Delta-p50 (%)” value was 27.09%. With COCCc1nccnc1C(=O)N1CCOC[C@H]1COc1cccc(O)c1C=O [Compound 27, 2-hydroxy-6-{[(3S)-4-[3-(2-methoxyethyl)pyrazine-2-carbonyl]morpholin-3-yl]methoxy}benzaldehyde] the “Delta-p50 (%)” value was 66.58%. With N#CCCc1nccnc1C(=O)N1CCOC[C@H]1COc1cccc(O)c1C=O [Compound 32, 3-{3-[(3S)-3-[(2-formyl-3-hydroxyphenoxy)methyl]morpholine-4-carbonyl]pyrazin-2-yl}propanenitrile] the “Delta-p50 (%)” value was 60.55%. For CC(O)c1ncccc1C(=O)N1CCOC[C@H]1COc1cccc(O)c1C=O (single isomer, unassigned) [41 (Diastereomer 1)], the “Delta-p50 (%)” value was 66.71%. In the case of CC(O)c1ncccc1C(=O)N1CCOC[C@H]1COc1cccc(O)c1C=O (single isomer, unassigned) [41 (Diastereomer 2)], the “Delta-p50 (%)” value is reported as 53.94%. With O=Cc1c(O)cccc1OC[C@@H]1CCCCN1C(=O)c1ccccc1CO [Compound 5, (S)-2-hydroxy-6-((1-(2-(hydroxymethyl)benzoyl)piperidin-2-yl)methoxy)benzaldehyde] the “Delta-p50 (%)” value was 81.0%. For CC(O)Cc1ncccc1C(=O)N1CCOC[C@H]1COc1cccc(O)c1C=O (single isomer, unassigned) [42 (Diastereomer 1)], the “Delta-p50 (%)” value was 76.39%. With O=Cc1c(O)cccc1OCC1CSCCN1C(=O)c1cccnc1CO (single isomer, unassigned) [13 (Enantiomer 2), 2-hydroxy-6-((4-(2-(hydroxymethyl)nicotinoyl)-thiomorpholin-3-yl)-methoxy)benzaldehyde] the “Delta-p50 (%)” value was 61.0%. For O=Cc1c(O)cccc1OC[C@@H]1COCCN1C(=O)c1nccnc1CO [Compound 33, 2-hydroxy-6-{[(3S)-4-[3-(hydroxymethyl)pyrazine-2-carbonyl]morpholin-3-yl]methoxy}benzaldehyde], the “Delta-p50 (%)” value was 49.03%. For O=Cc1c(O)cccc1OC[C@@H]1CCCCN1C(=O)c1ccccc1C(O)CO (single isomer, unassigned) [34 (Diastereomer 1)], the “Delta-p50 (%)” value was 80.43%. For O=Cc1c(O)cccc1OC[C@@H]1CCCCN1C(=O)c1cccnc1CCCO [Compound 18, (S)-2-hydroxy-6-((1-(2-(3-hydroxypropyl)nicotinoyl)-piperidin-2-yl)methoxy)-benzaldehyde], the “Delta-p50 (%)” value was 79.67%. CC(O)c1ncccc1C(=O)N1CCSC[C@H]1COc1cccc(O)c1C=O (single isomer, unassigned) [43 (Diastereomer 1)] was tested, and the “Delta-p50 (%)” value was 64.50%. In the case of O=Cc1c(O)cccc1OC[C@@H]1CCCCN1C(=O)c1ncccc1CCO [Compound 16, (S)-2-hydroxy-6-((1-(3-(2-hydroxyethyl)picolinoyl)piperidin-2-yl)methoxy)benzaldehyde], the “Delta-p50 (%)” value is reported as 49.55%. In the case of O=Cc1c(O)cccc1OC[C@@H]1COCCN1C(=O)c1nccnc1CCO [Compound 21, 2-hydroxy-6-{[(3S)-4-[3-(2-hydroxyethyl)pyrazine-2-carbonyl]morpholin-3-yl]methoxy}benzaldehyde], the “Delta-p50 (%)” value is reported as 60.21%. In the case of N#CCCc1ccccc1C(=O)N1CCOC[C@H]1COc1cccc(O)c1C=O [Compound 31, 3-{2-[(3S)-3-[(2-formyl-3-hydroxyphenoxy)methyl]morpholine-4-carbonyl]phenyl}propanenitrile], the “Delta-p50 (%)” value is reported as 74.03%. In the case of COCCc1ccccc1C(=O)N1CCCC[C@H]1COc1cccc(O)c1C=O [Compound 14, (S)-2-hydroxy-6-((1-(2-(2-methoxyethyl)benzoyl)piperidin-2-yl)methoxy)benzaldehyde], the “Delta-p50 (%)” value is reported as 74.56%. For O=Cc1c(O)cccc1OC[C@@H]1CCCCN1C(=O)c1ccccc1C(O)CO (stereo partly drawn) [Compound 34, 2-{[(2S)-1-[2-(1,2-dihydroxyethyl)benzoyl]piperidin-2-yl]methoxy}-6-hydroxybenzaldehyde], the “Delta-p50 (%)” value was 79.46%. For COCCc1ncccc1C(=O)N1CCCC[C@H]1COc1cccc(O)c1C=O [Compound 2, (S)-2-hydroxy-6-((1-(2-(2-methoxyethyl)nicotinoyl)piperidin-2-yl)methoxy)benzaldehyde], the “Delta-p50 (%)” value was 84.4%. For O=Cc1c(O)cccc1OC[C@H]1COCCN1C(=O)c1cccnc1CCO [Compound 37, 2-hydroxy-6-{[(3R)-4-[2-(2-hydroxyethyl)pyridine-3-carbonyl]morpholin-3-yl]methoxy}benzaldehyde], the “Delta-p50 (%)” value was 60.58%. With N#CCCc1ncccc1C(=O)N1CCOC[C@H]1COc1cccc(O)c1C=O [Compound 28, 3-{3-[(3S)-3-[(2-formyl-3-hydroxyphenoxy)methyl]morpholine-4-carbonyl]pyridin-2-yl}propanenitrile] the “Delta-p50 (%)” value was 83.35%. With N#CCCc1ncccc1C(=O)N1CCCC[C@H]1COc1cccc(O)c1C=O [Compound 3, (S)-3-(3-(2-((2-formyl-3-hydroxyphenoxy)methyl)piperidine-1-carbonyl)pyridin-2-yl)propanenitrile] the “Delta-p50 (%)” value was 85.8%. For O=Cc1c(O)cccc1OCC1CSCCN1C(=O)c1ccccc1CO (centres unmarked) [Compound 40, 2-hydroxy-6-({4-[2-(hydroxymethyl)benzoyl]thiomorpholin-3-yl}methoxy)benzaldehyde], the “Delta-p50 (%)” value was 72.82%. For O=Cc1c(O)cccc1OCC1CSCCN1C(=O)c1cccnc1CCO (single isomer, unassigned) [10 (Enantiomer 1), 2-hydroxy-6-((4-(2-(2-hydroxyethyl)nicotinoyl)-thiomorpholin-3-yl)-methoxy)benzaldehyde], the “Delta-p50 (%)” value was 65.6%. With O=Cc1c(O)cccc1OC[C@@H]1CCCN1C(=O)c1cccnc1CCO [Compound 9, (S)-2-hydroxy-6-((1-(2-(2-hydroxyethyl)-nicotinoyl)pyrrolidin-2-yl)methoxy)benzaldehyde] the “Delta-p50 (%)” value was 62.2%. For O=Cc1c(O)cccc1OC[C@@H]1COCCN1C(=O)c1ccccc1CCO [Compound 22, 2-hydroxy-6-{[(3S)-4-[2-(2-hydroxyethyl)benzoyl]morpholin-3-yl]methoxy}benzaldehyde], the “Delta-p50 (%)” value was 70.32%. In the case of CC(O)c1ncccc1C(=O)N1CCSC[C@H]1COc1cccc(O)c1C=O (single isomer, unassigned) [43 (Diastereomer 2)], the “Delta-p50 (%)” value is reported as 64.56%. For COCCc1nccnc1C(=O)N1CCC[C@H]1COc1cccc(O)c1C=O [Compound 25, 2-hydroxy-6-{[(2S)-1-[3-(2-methoxyethyl)pyrazine-2-carbonyl]pyrrolidin-2-yl]methoxy}benzaldehyde], the “Delta-p50 (%)” value was 53.36%. With O=Cc1c(O)cccc1OCC1CSCCN1C(=O)c1ccccc1CO (single isomer, unassigned) [40 (Enantiomer 1), 2-hydroxy-6-((4-(2-(hydroxymethyl)benzoyl)-thiomorpholin-3-yl)-methoxy)benzaldehyde] the “Delta-p50 (%)” value was 64.31%. In the case of COCCc1ncccc1C(=O)N1CCC[C@H]1COc1cccc(O)c1C=O [Compound 24, 2-hydroxy-6-{[(2S)-1-[2-(2-methoxyethyl)pyridine-3-carbonyl]pyrrolidin-2-yl]methoxy}benzaldehyde], the “Delta-p50 (%)” value is reported as 65.51%.
